Test system: conscious male spontaneously hypertensive rats (SHR)
Experiment: anti-hypertensive response: area under the control group blood pressure curve (mean arterial blood pressure, indwelling catheter) in conscious male spontaneously hypertensive rats
Type: in vivo
Conditions: cromakalim 0.075 mg/kg po, n=10
Procedure: Mean arterial blood pressures were measured from an indwelling catheter as described by Buckingham 1976 J. Pharm. Pharmac Vol. 28, pp 459-461. 1. Calculation of area under the control group blood pressure curve (AUC). Group mean arterial blood pressure values were calculated as % change from the pretreatment baseline. For each drug treatment group the area under the control group blood pressure curve was calculated using a trapezoidal method. […] Predicted AUC values were arrived at by combining values for each treatment given alone.

CC1(C)Oc2ccc(C#N)cc2[C@@H](N2CCCC2=O)[C@@H]1O (racemic) [Cromakalim, (±)-6-cyano-3,4-dihydro-2,2-dimethyl-trans-4-(2-oxo-1-pyrrolidinyl)-2H-benzo[b]pyran-3-ol]
AUC (0-2 h) (0-2 h): 1941 | AUC (0-4 h) (0-4 h): 2981

Reference: patent US5032591A, “Pharmaceutical preparations” (Beecham Group p.l.c., priority 1988, dated 1991)
